Numbering of substitutions follows the chain as printed.
Columns and labels:
[1] = target: BvGUS; test: isothermal titration calorimetry; assay type: binding, Butyrivibrio fibrisolvens; conditions: 25 °C; 20 mM HEPES, 50 mM NaCl, pH 7.4
[2] = target: T1, Fp2GUS (Faecalibacterium prausnitzii, UniProt D4K3H3); test: isothermal titration calorimetry; assay type: binding
T1 sequence (D4K3H3 1-746): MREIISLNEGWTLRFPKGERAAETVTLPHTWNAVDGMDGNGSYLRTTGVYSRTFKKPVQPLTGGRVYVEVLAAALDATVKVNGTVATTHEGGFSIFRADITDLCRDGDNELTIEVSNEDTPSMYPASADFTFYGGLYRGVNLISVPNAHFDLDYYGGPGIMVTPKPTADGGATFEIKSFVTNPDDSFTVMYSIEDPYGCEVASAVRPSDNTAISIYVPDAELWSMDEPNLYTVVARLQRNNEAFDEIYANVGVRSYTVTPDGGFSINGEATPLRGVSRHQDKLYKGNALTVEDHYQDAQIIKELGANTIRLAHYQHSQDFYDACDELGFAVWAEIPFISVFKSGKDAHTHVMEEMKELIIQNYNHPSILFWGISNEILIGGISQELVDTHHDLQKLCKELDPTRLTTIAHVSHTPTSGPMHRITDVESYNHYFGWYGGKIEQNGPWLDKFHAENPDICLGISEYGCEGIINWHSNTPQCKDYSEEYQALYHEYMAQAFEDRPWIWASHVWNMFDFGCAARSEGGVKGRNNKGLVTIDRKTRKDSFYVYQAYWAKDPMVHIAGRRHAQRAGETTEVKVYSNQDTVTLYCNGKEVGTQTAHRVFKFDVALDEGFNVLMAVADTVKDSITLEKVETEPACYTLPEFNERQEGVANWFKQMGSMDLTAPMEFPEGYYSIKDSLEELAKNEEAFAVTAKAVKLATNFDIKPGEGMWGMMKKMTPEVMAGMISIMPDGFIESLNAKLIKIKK

[3] = target: T2, Rg3GUS (Mediterraneibacter gnavus, UniProt Z9EEQ2OTY4); test: fluorescence of 4-methylumbelliferone release, initial rates; assay type: biochemical; conditions: pH 6.5 HEPES or pH 5.5 acetate; FMN added (5 μL of 25 μM in 50 μL)
T2 sequence (Z9EEQ2OTY4 24-777): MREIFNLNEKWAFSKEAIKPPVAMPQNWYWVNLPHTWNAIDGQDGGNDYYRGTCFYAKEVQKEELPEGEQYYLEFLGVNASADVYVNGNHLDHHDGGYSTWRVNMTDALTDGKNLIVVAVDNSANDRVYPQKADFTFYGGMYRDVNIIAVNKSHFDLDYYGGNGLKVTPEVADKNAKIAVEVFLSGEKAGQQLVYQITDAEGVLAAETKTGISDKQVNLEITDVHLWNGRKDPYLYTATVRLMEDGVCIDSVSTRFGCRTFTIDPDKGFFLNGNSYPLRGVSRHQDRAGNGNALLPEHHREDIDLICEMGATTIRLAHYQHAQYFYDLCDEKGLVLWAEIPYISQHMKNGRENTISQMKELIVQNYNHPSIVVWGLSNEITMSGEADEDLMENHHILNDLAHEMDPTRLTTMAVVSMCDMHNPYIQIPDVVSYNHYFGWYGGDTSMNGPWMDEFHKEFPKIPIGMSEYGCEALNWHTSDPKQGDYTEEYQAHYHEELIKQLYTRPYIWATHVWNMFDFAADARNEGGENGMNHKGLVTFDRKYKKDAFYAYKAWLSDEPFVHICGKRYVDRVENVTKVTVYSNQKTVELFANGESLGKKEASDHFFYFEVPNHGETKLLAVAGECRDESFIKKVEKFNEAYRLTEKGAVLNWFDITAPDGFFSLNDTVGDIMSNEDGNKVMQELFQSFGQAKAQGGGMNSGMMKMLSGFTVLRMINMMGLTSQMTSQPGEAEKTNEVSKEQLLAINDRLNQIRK

[4] = target: T1, Fp2GUS; test: as above; assay type: biochemical; conditions: pH 6.5 HEPES or pH 5.5 acetate; FMN added (5 μL of 25 μM in 50 μL)
[5] = target: T3, Rh2GUS (Roseburia hominis, UniProt Z9OYF2D7T4, Y182A); test: as above; assay type: biochemical; conditions: pH 6.5 HEPES or pH 5.5 acetate; no FMN added
T3 sequence (Z9OYF2D7T4 24-780 Y182A): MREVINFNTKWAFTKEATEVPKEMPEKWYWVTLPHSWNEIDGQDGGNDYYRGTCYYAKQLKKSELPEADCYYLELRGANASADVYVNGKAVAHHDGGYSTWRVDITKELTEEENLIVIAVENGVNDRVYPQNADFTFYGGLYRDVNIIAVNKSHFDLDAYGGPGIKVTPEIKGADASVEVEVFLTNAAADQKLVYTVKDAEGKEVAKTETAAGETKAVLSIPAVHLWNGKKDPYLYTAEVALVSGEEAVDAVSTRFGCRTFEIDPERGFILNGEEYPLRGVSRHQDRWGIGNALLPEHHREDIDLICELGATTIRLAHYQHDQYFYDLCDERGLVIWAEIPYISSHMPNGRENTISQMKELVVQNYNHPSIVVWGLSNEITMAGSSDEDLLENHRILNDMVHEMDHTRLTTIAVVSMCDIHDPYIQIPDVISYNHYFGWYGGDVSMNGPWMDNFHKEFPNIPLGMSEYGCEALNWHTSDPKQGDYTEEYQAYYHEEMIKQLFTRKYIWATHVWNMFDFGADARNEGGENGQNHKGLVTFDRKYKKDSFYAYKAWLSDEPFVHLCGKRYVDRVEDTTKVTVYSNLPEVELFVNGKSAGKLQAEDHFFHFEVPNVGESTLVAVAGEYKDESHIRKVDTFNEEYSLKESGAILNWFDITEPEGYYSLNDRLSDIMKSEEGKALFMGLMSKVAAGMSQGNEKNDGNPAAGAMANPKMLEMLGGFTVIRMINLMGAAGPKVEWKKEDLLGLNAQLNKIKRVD

[6] = target: T4, Rh2GUS (Roseburia hominis, UniProt Z9OYF2D7T4); test: as above; assay type: biochemical; conditions: pH 6.5 HEPES or pH 5.5 acetate; FMN added (5 μL of 25 μM in 50 μL)
T4 sequence (Z9OYF2D7T4 24-780): T3 sequence (Z9OYF2D7T4 24-780 Y182A) with A159Y

[7] = target: T5, RiGUS (Roseburia inulinivorans, UniProt Z9MQZ9NYJ7); test: as above; assay type: biochemical; conditions: pH 6.5 HEPES or pH 5.5 acetate; FMN added (5 μL of 25 μM in 50 μL)
T5 sequence (Z9MQZ9NYJ7 1-736): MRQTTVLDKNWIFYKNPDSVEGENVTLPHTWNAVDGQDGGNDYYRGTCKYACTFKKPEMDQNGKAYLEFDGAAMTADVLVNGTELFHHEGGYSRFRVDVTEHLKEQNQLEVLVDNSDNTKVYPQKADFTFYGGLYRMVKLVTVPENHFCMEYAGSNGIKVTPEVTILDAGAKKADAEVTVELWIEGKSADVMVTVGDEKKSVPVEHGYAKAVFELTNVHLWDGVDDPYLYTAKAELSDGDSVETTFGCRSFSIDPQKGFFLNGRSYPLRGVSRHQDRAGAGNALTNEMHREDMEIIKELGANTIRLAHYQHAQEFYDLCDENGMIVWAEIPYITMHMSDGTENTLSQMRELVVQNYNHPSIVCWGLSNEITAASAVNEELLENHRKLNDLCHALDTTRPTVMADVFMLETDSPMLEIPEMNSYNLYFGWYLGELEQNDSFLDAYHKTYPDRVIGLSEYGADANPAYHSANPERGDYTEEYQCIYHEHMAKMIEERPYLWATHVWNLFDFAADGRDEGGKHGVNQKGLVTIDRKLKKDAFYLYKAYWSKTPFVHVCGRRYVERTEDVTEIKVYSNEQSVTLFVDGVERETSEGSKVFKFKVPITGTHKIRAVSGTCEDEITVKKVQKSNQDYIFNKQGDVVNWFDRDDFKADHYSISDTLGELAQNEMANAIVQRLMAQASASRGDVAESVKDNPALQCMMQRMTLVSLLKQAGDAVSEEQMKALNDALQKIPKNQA

`Cc1cc2nc3c(=O)[nH]c(=O)nc-3n(C[C@H](O)[C@H](O)[C@H](O)COP(=O)(O)O)c2cc1C` [FMN] was tested. Which Kd [1] did it give?
Its Kd is 1270 nM.

What about the Kd [2] of the same compound?
The Kd was 1050 ± 60 nM.

What does the source list for `Cc1cc(=O)oc2cc(O[C@@H]3O[C@H](C(=O)O)[C@@H](O)[C@H](O)[C@H]3O)ccc12` [4-MUG]?
KM [3]: Each GUS was able to hydrolyze the fluorescent reporter substrate 4-methylumbelliferyl glucuronide (4-MUG); KM [4]: Each GUS was able to hydrolyze the fluorescent reporter substrate 4-methylumbelliferyl glucuronide (4-MUG); KM [5]: FMN-binding mutants of Rh2GUS, Rg3GUS, and BvGUS all display significantly higher KM values than WT; KM [6]: Each GUS was able to hydrolyze the fluorescent reporter substrate 4-methylumbelliferyl glucuronide (4-MUG); KM [7]: Each GUS was able to hydrolyze the fluorescent reporter substrate 4-methylumbelliferyl glucuronide (4-MUG)

— article PMC6389425 (Journal of molecular biology, 2019)
